According to US20160067347A1, “APJ RECEPTOR AGONISTS AND USES THEREOF” (AMGEN INC., priority 2012, published 2016):

Key:
[1] = In vitro plasma stability of apelin peptides (Table 15; plasma species not given); assay type: in vitro ADME; conditions: 5 μM in plasma, 37° C.
From the text: (metabolite data not shown).

[2] = background statement; cited from earlier work
in vitro = conditions: rat, plasma
Procedure: Apelin peptides were spiked into freshly prepared mouse, rat, dog and human EDTA plasma to a final concentration of 5 μM. The plasma samples were then incubated at 37° C. over a period of 4 hr. Up to 8 time points were sampled to facilitate estimation of in vitro half life in plasma matrices. In a typical experiment, aliquot of 100 μL of plasma sample was taken from the incubation vial, followed by addition of 300 μL of MeOH containing internal standard. The quenched sample was centrifuged at 5500 g for 15 min after 15 min vortex in room temperature. The supernatant was then analyzed by high resolution LC-MS.

## CSCC[C@H](NC(=O)[C@@H]1CCCN1C(=O)CNC(=O)[C@H](CCCCN)NC(=O)[C@H](Cc1cnc[nH]1)NC(=O)[C@H](CO)NC(=O)[C@H](CC(C)C)NC(=O)[C@H](CCCNC(=N)N)NC(=O)[C@@H]1CCCN1C(=O)[C@H](CCCNC(=N)N)NC(=O)[C@@H](N)CCC(N)=O)C(=O)N1CCC[C@H]1C(=O)N[C@@H](Cc1ccccc1)C(=O)O [Apelin-13]
[1]
  in vitro plasma stability, % at 15 minutes: 0.1%
[2]
  plasma half-life: < 5 min
In vitro
  remaining at 0.25 h, 5 μM: 0.1%
